The source of these data is US20220395553A1, “CXCR4 ANTAGONIST PEPTIDES” (COHBAR, INC., priority 2019, published 2022).

Square brackets hold non-standard residues; d marks the D form. Peptide text beside a SMILES is read from it.

Chain of human CXCR4 (P61073 whole entry): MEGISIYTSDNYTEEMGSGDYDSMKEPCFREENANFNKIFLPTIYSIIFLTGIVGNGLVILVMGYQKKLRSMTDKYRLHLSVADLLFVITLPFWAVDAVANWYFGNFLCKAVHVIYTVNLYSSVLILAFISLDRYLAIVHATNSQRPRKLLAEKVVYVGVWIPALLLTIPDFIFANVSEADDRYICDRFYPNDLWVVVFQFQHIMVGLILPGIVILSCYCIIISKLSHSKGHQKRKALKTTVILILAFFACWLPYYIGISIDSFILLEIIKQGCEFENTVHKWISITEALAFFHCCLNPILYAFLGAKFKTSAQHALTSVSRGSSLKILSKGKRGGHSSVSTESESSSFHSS

This assay concerns the target human CXCR4 (Homo sapiens, UniProt P61073). The assay is described as follows: CXCR4/CXCL12 binding, HTRF format, single concentration (Example 23). Also on record: host or cells: HEK293 (Tag-lite CXCR4 cells, frozen aliquots, transient expression). The settings on record: 15 nM CXCR4R fluorescent probe, 3 hours, HEK293 Tag-lite CXCR4 cells. Here is the method: Peptides were initially prepared as 1 mM stock in H2O and tested at a final concentration of 400 nM. Following the manufacture's protocol, a frozen aliquot of Tag-lite CXCR4 cells was thawed and immediately seeded onto 384-well plates in TLB. Immediately following the addition of cells, 400 nM peptide (final concentration) in TLB was added to the appropriate well. Then 15 nM (final concentration; EC80) of CXCR4R fluorescent probe was added to each well to initiate the HTRF assay. The plates were covered in aluminum foil and left at room temperature for 3 hours. Following the 3 hour incubation period, the plates were removed from the incubator and fluorescence measured using a Cytation 1 plate reader using a HTRF filter cube ([…]; BioTek; Winooski, Vt.). According manufacture's instruction data reduction was performed by calculating the ratio of 665 nm signal (TRF of 665 nm excitation by 620 emission; amount of CXCR4R fluorescent probe bound to terbium labeled CXCR receptor)/620 nm signal (620 excitation by 330 nm light source; normalization factor for amount of terbium labeled CXCR4 receptor in well)×10,000.
In general terms: Time-resolved FRET reads energy transfer from a long-lived donor to a nearby acceptor.
As to `CC(C)C[C@H](NC(=O)[C@H](CO)NC(=O)[C@H](CO)NC(=O)[C@H](CC(=O)O)NC(=O)[C@@H](C)NC(=O)[C@H](CO)NC(=O)[C@H](Cc1c[nH]cn1)NC(=O)[C@H](Cc1c[nH]cn1)NC(=O)[C@H](Cc1ccc(O)cc1)NC(=O)[C@H](CCCNC(=N)N)NC(=O)[C@H](CCCNC(=N)N)NC(=O)[C@@H](N)CC(C)C)C(=O)N[C@@H](CCCNC(=N)N)C(=O)N1CCC[C@H]1C(=O)N[C@@H](Cc1ccc(O)cc1)C(=O)N[C@H](C(=O)N[C@@H](CCCCN)C(=O)O)[C@@H](C)O` [compound 68] (H-LRRYHHS[dA]DSSLRPYTK-OH; N-terminus and C-terminus assumed), the “Percent Inhibition of CXCR4/CXCL12 Binding (400 nM peptide)” value is reported as −10%.

Turning to `CC(C)C[C@H](NC(=O)[C@H](CO)NC(=O)[C@H](CO)NC(=O)[C@H](CCCNC(=N)N)NC(=O)[C@@H](NC(=O)[C@H](CO)NC(=O)[C@H](Cc1c[nH]cn1)NC(=O)[C@H](CCC(N)=O)NC(=O)[C@H](Cc1ccc(O)cc1)NC(=O)[C@H](CCCNC(=N)N)NC(=O)[C@H](CCC(=O)O)NC(=O)[C@@H](N)CC(C)C)C(C)C)C(=O)N[C@@H](CCCNC(=N)N)C(=O)N1CCC[C@H]1C(=O)N[C@@H](Cc1ccc(O)cc1)C(=O)N[C@H](C(=O)N[C@@H](CCCCN)C(=O)O)[C@@H](C)O` [compound 48] (H-LERYQHSVRSSLRPYTK-OH; N-terminus and C-terminus assumed), the “Percent Inhibition of CXCR4/CXCL12 Binding (400 nM peptide)” value is recorded as 13%.

Consider `CC(C)C[C@H](NC(=O)[C@H](CO)NC(=O)[C@H](CO)NC(=O)[C@H](CCCNC(=N)N)NC(=O)[C@@H](C)NC(=O)[C@H](CO)NC(=O)[C@H](Cc1c[nH]cn1)NC(=O)[C@H](Cc1c[nH]cn1)NC(=O)[C@H](Cc1ccc(O)cc1)NC(=O)[C@H](CCCNC(=N)N)NC(=O)[C@H](CCCNC(=N)N)NC(=O)[C@@H](N)CC(C)C)C(=O)N[C@@H](CCC(=O)O)C(=O)N1CCC[C@H]1C(=O)N[C@@H](Cc1ccc(O)cc1)C(=O)N[C@H](C(=O)N[C@@H](CCCCN)C(=O)O)[C@@H](C)O` [compound 65] (H-LRRYHHS[dA]RSSLEPYTK-OH; N-terminus and C-terminus assumed), for which the “Percent Inhibition of CXCR4/CXCL12 Binding (400 nM peptide)” value was −5%.

For `CC(C)C[C@H](NC(=O)[C@H](CO)NC(=O)[C@H](CO)NC(=O)[C@H](CCCNC(=N)N)NC(=O)[C@@H](NC(=O)[C@H](CO)NC(=O)[C@H](Cc1c[nH]cn1)NC(=O)[C@H](Cc1c[nH]cn1)NC(=O)[C@H](Cc1ccc(O)cc1)NC(=O)[C@H](CCCNC(=N)N)NC(=O)[C@@H](N)CCCNC(=N)N)C(C)C)C(=O)N[C@@H](CCCNC(=N)N)C(=O)N1CCC[C@H]1C(=O)N[C@@H](Cc1ccc(O)cc1)C(=O)N[C@H](C(=O)N[C@@H](CCCCN)C(=O)O)[C@@H](C)O` [compound 10] (H-RRYHHSVRSSLRPYTK-OH; N-terminus and C-terminus assumed), the “Percent Inhibition of CXCR4/CXCL12 Binding (400 nM peptide)” value is reported as −8%.

Consider `CC(C)C[C@H](N)C(=O)N[C@@H](CCCNC(=N)N)C(=O)N[C@@H](CCCNC(=N)N)C(=O)N[C@@H](Cc1ccc(O)cc1)C(=O)N[C@@H](Cc1c[nH]cn1)C(=O)N[C@@H](Cc1c[nH]cn1)C(=O)N[C@@H](CO)C(=O)N[C@H](C(=O)N[C@@H](CCCNC(=N)N)C(=O)N[C@@H](CO)C(=O)N[C@@H](CO)C(=O)O)C(C)C` [compound 29] (H-LRRYHHSVRSS-OH; N-terminus and C-terminus assumed), for which the “Percent Inhibition of CXCR4/CXCL12 Binding (400 nM peptide)” value is reported as 14%.

As for `CC(C)C[C@H](NC(=O)[C@H](CO)NC(=O)[C@H](CO)NC(=O)[C@H](CCCNC(=N)N)NC(=O)[C@@H](NC(=O)[C@H](CO)NC(=O)[C@H](Cc1c[nH]cn1)NC(=O)[C@H](Cc1c[nH]cn1)NC(=O)[C@H](Cc1ccc(O)cc1)NC(=O)[C@H](CCCNC(=N)N)NC(=O)[C@H](CCCNC(=N)N)NC(=O)[C@@H](N)CC(C)C)C(C)C)C(=O)N[C@@H](CCCNC(=N)N)C(=O)O` [compound 27] (H-LRRYHHSVRSSLR-OH; N-terminus and C-terminus assumed), the “Percent Inhibition of CXCR4/CXCL12 Binding (400 nM peptide)” value is recorded as 10%.

As for `CC(C)C[C@H](NC(=O)[C@H](CO)NC(=O)[C@H](CO)NC(=O)[C@H](CCCNC(=N)N)NC(=O)[C@@H](C)NC(=O)[C@H](CO)NC(=O)[C@H](Cc1c[nH]cn1)NC(=O)[C@H](CCC(N)=O)NC(=O)[C@H](Cc1ccc(O)cc1)NC(=O)[C@H](CCCNC(=N)N)NC(=O)[C@H](CCC(=O)O)NC(=O)[C@@H](N)CC(C)C)C(=O)N[C@@H](CCCNC(=N)N)C(=O)N1CCC[C@H]1C(=O)N[C@@H](Cc1ccc(O)cc1)C(=O)N[C@H](C(=O)N[C@@H](CCCCN)C(=O)O)[C@@H](C)O` [compound 49] (H-LERYQHS[dA]RSSLRPYTK-OH; N-terminus and C-terminus assumed), the “Percent Inhibition of CXCR4/CXCL12 Binding (400 nM peptide)” value worked out at 20%.

Turning to `CC(C)C[C@H](NC(=O)[C@H](CO)NC(=O)[C@H](CO)NC(=O)[C@H](CCCNC(=N)N)NC(=O)[C@@H](NC(=O)[C@H](CO)NC(=O)[C@H](Cc1c[nH]cn1)NC(=O)[C@H](CC(N)=O)NC(=O)[C@H](Cc1ccc(O)cc1)NC(=O)[C@H](CCCNC(=N)N)NC(=O)[C@H](CCC(=O)O)NC(=O)[C@@H](N)CC(C)C)C(C)C)C(=O)N[C@@H](CCCNC(=N)N)C(=O)N1CCC[C@H]1C(=O)N[C@@H](Cc1ccc(O)cc1)C(=O)N[C@H](C(=O)N[C@@H](CCCCN)C(=O)O)[C@@H](C)O` [compound 42] (H-LERYNHSVRSSLRPYTK-OH; N-terminus and C-terminus assumed), the “Percent Inhibition of CXCR4/CXCL12 Binding (400 nM peptide)” value came to 32%.

In the case of `CC(C)C[C@H](NC(=O)[C@H](CO)NC(=O)[C@H](CO)NC(=O)[C@H](CCCNC(=N)N)NC(=O)[C@@H](C)NC(=O)[C@H](CO)NC(=O)[C@H](CC(N)=O)NC(=O)[C@H](Cc1c[nH]cn1)NC(=O)[C@H](Cc1ccc(O)cc1)NC(=O)[C@H](CCCNC(=N)N)NC(=O)[C@H](CCC(=O)O)NC(=O)[C@@H](N)CC(C)C)C(=O)N[C@@H](CCCNC(=N)N)C(=O)N1CCC[C@H]1C(=O)N[C@@H](Cc1ccc(O)cc1)C(=O)N[C@H](C(=O)N[C@@H](CCCCN)C(=O)O)[C@@H](C)O` [compound 46] (H-LERYHNS[dA]RSSLRPYTK-OH; N-terminus and C-terminus assumed), the “Percent Inhibition of CXCR4/CXCL12 Binding (400 nM peptide)” value is given as −4%.

Consider `CC(C)C[C@H](NC(=O)[C@H](CO)NC(=O)[C@H](CO)NC(=O)[C@H](CCCNC(=N)N)NC(=O)[C@@H](NC(=O)[C@H](CO)NC(=O)[C@H](Cc1c[nH]cn1)NC(=O)[C@H](Cc1c[nH]cn1)NC(=O)[C@H](Cc1ccc(O)cc1)NC(=O)[C@H](CCCNC(=N)N)NC(=O)[C@H](CCC(=O)O)NC(=O)[C@@H](N)CC(C)C)C(C)C)C(=O)N[C@@H](CCCNC(=N)N)C(=O)N1CCC[C@H]1C(=O)N[C@@H](Cc1ccc(O)cc1)C(=O)O` [compound 19] (H-LERYHHSVRSSLRPY-OH; N-terminus and C-terminus assumed), for which the “Percent Inhibition of CXCR4/CXCL12 Binding (400 nM peptide)” value is reported as 44%.

For `CC(C)C[C@H](NC(=O)[C@H](CO)NC(=O)[C@H](CO)NC(=O)[C@H](CCCNC(=N)N)NC(=O)[C@@H](NC(=O)[C@H](CO)NC(=O)[C@H](Cc1c[nH]cn1)NC(=O)[C@H](Cc1c[nH]cn1)NC(=O)[C@H](Cc1ccc(O)cc1)NC(=O)[C@H](CCCNC(=N)N)NC(=O)[C@H](CCC(=O)O)NC(=O)[C@@H](N)CC(C)C)C(C)C)C(=O)N[C@@H](CCCNC(=N)N)C(=O)O` [compound 21] (H-LERYHHSVRSSLR-OH; N-terminus and C-terminus assumed), the “Percent Inhibition of CXCR4/CXCL12 Binding (400 nM peptide)” value was 20%.

In the case of `CC(C)C[C@H](NC(=O)[C@H](CO)NC(=O)[C@H](CO)NC(=O)[C@H](CCCNC(=N)N)NC(=O)[C@@H](NC(=O)[C@H](CO)NC(=O)[C@H](Cc1c[nH]cn1)NC(=O)[C@H](Cc1c[nH]cn1)NC(=O)[C@H](Cc1ccc(O)cc1)NC(=O)[C@H](CCCNC(=N)N)NC(=O)[C@H](CCCNC(=N)N)NC(=O)[C@@H](N)CC(C)C)C(C)C)C(=O)N[C@@H](CCCNC(=N)N)C(=O)N1CCC[C@H]1C(=O)O` [compound 26] (H-LRRYHHSVRSSLRP-OH; N-terminus and C-terminus assumed), the “Percent Inhibition of CXCR4/CXCL12 Binding (400 nM peptide)” value is given as 1%.

As to `CC(C)C[C@H](NC(=O)[C@H](CO)NC(=O)[C@H](CO)NC(=O)[C@H](CCCNC(=N)N)NC(=O)[C@@H](NC(=O)[C@H](CO)NC(=O)[C@H](CCC(N)=O)NC(=O)[C@H](Cc1c[nH]cn1)NC(=O)[C@H](Cc1ccc(O)cc1)NC(=O)[C@H](CCCNC(=N)N)NC(=O)[C@H](CCC(=O)O)NC(=O)[C@@H](N)CC(C)C)C(C)C)C(=O)N[C@@H](CCCNC(=N)N)C(=O)N1CCC[C@H]1C(=O)N[C@@H](Cc1ccc(O)cc1)C(=O)N[C@H](C(=O)N[C@@H](CCCCN)C(=O)O)[C@@H](C)O` [compound 51] (H-LERYHQSVRSSLRPYTK-OH; N-terminus and C-terminus assumed), the “Percent Inhibition of CXCR4/CXCL12 Binding (400 nM peptide)” value is −2%.

`CC(C)C[C@H](NC(=O)[C@H](CO)NC(=O)[C@H](CO)NC(=O)[C@H](CCCNC(=N)N)NC(=O)[C@@H](NC(=O)[C@H](CO)NC(=O)[C@H](Cc1c[nH]cn1)NC(=O)[C@H](Cc1c[nH]cn1)NC(=O)[C@H](Cc1ccc(O)cc1)NC(=O)[C@H](CCCNC(=N)N)NC(=O)[C@H](CCCNC(=N)N)NC(=O)[C@@H](N)CC(C)C)C(C)C)C(=O)N[C@@H](CCCNC(=N)N)C(=O)N1CCC[C@H]1C(=O)N[C@@H](Cc1ccc(O)cc1)C(=O)N[C@H](C(=O)O)[C@@H](C)O` [compound 24] (H-LRRYHHSVRSSLRPYT-OH; N-terminus and C-terminus assumed): the “Percent Inhibition of CXCR4/CXCL12 Binding (400 nM peptide)” value amounted to 8%.
